Measured values as given in patent US20230391768A2, “IMIDAZOPYRIDINE DERIVATIVES AND AZA-IMIDAZOPYRIDINE DERIVATIVES AS JANUS KINASE 2 INHIBITORS AND USES THEREOF” (Dana-Farber Cancer Institute, Inc., priority 2018, published 2023).

Legend:
Assay in all cases: KINOMEscan
Assay type in all cases: binding
NEK1 = NEK1 (Homo sapiens (Human), UniProt Q96PY6); settings: read-out: percent of control
Description: (§1) In vitro profiling of Compound I-2 (1 μM) was performed using the DiscoveRx KINOMEscan® platform.

FLT3 (ITD,F691L) = settings: 1 μM
Description: as §1

NIM1 = NIM1 (Homo sapiens (Human), UniProt Q8IY84); settings: read-out: percent of control
Description: as §1

PAK4 = PAK4 (Homo sapiens (Human), UniProt O96013); settings: read-out: percent of control
Sequence of PAK4 (O96013 whole entry): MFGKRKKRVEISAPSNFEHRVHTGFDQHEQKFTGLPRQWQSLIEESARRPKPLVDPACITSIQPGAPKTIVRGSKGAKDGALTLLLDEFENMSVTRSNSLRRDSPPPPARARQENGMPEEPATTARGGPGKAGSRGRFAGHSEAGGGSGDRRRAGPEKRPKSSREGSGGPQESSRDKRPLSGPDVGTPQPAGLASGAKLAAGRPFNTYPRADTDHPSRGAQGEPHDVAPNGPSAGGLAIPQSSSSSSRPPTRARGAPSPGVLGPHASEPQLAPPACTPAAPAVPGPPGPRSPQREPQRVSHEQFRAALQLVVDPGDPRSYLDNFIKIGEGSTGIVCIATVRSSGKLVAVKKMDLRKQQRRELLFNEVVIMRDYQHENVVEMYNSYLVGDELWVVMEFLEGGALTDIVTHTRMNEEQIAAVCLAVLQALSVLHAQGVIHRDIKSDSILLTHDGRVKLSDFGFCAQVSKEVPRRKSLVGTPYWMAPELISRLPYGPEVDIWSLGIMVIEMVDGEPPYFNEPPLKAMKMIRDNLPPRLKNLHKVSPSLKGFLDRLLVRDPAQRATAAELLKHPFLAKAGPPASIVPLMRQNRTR
Description: as §1

HASPIN = HASPIN (Homo sapiens (Human), UniProt Q8TF76); settings: read-out: percent of control
Description: as §1

PRKX = PRKX (Homo sapiens (Human), UniProt P51817); settings: read-out: percent of control
Description: as §1

PKMYT1 = PKMYT1 (Homo sapiens (Human), UniProt Q99640); settings: read-out: percent of control
Description: as §1

ITK = ITK (Homo sapiens (Human), UniProt Q08881); settings: read-out: percent of control
Description: as §1

MLCK = MLCK (Homo sapiens (Human), UniProt Q32MK0); settings: read-out: percent of control
Sequence of MLCK (Q32MK0 whole entry): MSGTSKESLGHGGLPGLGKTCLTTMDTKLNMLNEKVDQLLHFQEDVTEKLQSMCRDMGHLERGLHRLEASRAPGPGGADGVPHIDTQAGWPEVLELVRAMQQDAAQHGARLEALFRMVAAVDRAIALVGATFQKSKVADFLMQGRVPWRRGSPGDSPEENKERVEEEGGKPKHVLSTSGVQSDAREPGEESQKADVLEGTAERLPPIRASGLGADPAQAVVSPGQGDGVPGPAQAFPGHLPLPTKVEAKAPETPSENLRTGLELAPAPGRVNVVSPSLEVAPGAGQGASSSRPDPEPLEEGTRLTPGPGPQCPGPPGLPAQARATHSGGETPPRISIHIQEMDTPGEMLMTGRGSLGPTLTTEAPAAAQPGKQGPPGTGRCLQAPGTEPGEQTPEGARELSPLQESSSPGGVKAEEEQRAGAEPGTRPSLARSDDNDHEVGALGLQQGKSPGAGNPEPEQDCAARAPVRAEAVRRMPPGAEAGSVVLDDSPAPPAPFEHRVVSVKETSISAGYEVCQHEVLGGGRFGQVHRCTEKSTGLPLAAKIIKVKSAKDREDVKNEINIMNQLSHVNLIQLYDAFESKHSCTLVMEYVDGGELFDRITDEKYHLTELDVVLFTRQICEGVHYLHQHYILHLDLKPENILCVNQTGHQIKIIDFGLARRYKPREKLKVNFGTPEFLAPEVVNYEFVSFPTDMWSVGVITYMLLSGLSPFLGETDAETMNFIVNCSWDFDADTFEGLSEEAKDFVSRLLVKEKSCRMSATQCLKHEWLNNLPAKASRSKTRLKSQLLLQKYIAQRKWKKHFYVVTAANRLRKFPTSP
Description: as §1

CLK3 = CLK3 (Homo sapiens (Human), UniProt P49761); settings: read-out: percent of control
Description: as §1

KIT(V559D) = KIT(V559D) (Homo sapiens (Human), UniProt P10721, V559D); settings: read-out: percent of control
Sequence of KIT(V559D) (P10721 26-976 V559D): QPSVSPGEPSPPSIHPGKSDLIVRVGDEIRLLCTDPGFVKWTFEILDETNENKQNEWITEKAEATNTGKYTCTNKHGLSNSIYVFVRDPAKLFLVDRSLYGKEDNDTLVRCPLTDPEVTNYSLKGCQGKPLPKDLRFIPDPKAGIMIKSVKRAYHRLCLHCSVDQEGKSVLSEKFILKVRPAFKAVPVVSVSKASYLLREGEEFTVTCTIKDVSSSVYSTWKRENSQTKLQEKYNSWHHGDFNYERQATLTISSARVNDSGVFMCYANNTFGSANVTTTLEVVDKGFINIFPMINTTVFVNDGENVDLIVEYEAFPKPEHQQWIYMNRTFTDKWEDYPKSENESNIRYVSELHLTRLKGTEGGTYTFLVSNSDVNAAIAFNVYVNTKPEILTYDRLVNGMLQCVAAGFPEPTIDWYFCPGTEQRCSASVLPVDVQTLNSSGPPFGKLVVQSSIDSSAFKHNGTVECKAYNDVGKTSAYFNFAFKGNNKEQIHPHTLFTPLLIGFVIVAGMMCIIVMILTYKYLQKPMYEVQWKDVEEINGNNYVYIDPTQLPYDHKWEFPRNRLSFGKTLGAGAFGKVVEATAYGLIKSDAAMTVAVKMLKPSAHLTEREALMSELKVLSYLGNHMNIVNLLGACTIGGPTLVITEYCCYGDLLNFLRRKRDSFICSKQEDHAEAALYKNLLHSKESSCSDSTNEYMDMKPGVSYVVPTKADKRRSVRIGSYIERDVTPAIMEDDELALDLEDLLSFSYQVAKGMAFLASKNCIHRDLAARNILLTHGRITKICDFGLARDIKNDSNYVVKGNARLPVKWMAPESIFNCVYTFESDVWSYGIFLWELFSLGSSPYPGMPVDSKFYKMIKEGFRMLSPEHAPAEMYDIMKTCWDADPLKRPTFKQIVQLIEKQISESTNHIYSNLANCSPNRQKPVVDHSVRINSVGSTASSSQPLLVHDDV
Description: as §1

BMPR1A = BMPR1A (Homo sapiens (Human), UniProt P36894); settings: read-out: percent of control
Description: as §1

SRPK2 = SRPK2 (Homo sapiens (Human), UniProt P78362); settings: read-out: percent of control
Description: as §1

PHKG1 = PHKG1 (Homo sapiens (Human), UniProt Q16816); settings: read-out: percent of control
Description: as §1

ACVR1B = ACVR1B (Homo sapiens (Human), UniProt P36896); settings: read-out: percent of control
Description: as §1

FGFR3 = FGFR3 (Homo sapiens (Human), UniProt P22607); settings: read-out: percent of control
Description: as §1

ERK3 = ERK3 (Homo sapiens (Human), UniProt Q16659); settings: read-out: percent of control
Description: as §1

TEC = TEC (Homo sapiens (Human), UniProt P42680); settings: read-out: percent of control
Description: as §1

BRAF(V600E) = BRAF(V600E) (Homo sapiens (Human), UniProt P15056, V600E); settings: read-out: percent of control
Sequence of BRAF(V600E) (P15056 whole entry V600E): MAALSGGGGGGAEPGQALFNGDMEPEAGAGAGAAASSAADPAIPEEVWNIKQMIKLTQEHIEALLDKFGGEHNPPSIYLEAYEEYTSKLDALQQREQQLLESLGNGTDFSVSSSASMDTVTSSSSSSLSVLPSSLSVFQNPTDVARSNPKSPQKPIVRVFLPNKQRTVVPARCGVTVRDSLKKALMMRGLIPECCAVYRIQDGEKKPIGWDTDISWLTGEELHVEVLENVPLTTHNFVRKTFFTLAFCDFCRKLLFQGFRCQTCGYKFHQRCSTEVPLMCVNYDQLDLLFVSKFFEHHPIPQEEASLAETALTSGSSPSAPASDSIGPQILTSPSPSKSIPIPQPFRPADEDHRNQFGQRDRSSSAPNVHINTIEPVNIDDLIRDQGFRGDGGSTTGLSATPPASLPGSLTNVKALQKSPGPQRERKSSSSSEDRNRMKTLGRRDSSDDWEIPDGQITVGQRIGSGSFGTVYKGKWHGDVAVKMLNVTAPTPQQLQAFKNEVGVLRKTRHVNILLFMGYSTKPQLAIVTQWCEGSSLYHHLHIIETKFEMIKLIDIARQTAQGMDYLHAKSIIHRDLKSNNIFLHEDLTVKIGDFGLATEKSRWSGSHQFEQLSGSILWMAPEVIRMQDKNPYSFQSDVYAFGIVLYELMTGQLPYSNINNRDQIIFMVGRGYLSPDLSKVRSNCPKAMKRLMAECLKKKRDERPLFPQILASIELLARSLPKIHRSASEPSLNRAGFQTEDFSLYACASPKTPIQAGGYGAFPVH
Description: as §1

INSR = INSR (Homo sapiens (Human), UniProt P06213); settings: read-out: percent of control
Description: as §1

RIPK1 = RIPK1 (Homo sapiens (Human), UniProt Q13546); settings: read-out: percent of control
Sequence of RIPK1 (Q13546 whole entry): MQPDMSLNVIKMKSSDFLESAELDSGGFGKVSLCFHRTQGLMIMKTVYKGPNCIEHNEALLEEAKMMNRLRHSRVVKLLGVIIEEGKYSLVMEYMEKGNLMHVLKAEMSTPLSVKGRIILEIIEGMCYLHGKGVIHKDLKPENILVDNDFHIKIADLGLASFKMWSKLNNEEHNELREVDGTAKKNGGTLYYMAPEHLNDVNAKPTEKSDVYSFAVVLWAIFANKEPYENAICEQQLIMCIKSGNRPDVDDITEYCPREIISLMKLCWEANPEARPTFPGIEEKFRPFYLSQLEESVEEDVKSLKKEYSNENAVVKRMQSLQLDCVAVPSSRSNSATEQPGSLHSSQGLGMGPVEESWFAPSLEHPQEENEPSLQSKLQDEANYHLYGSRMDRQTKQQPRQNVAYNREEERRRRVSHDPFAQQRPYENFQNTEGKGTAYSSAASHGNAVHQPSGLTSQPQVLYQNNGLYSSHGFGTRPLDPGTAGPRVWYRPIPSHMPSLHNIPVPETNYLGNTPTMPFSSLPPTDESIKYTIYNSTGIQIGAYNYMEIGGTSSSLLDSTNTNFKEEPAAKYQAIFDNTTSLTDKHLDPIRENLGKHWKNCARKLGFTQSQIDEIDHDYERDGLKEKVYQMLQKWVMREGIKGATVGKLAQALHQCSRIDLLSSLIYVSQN
Description: as §1

CAMK2A = CAMK2A (Homo sapiens (Human), UniProt Q9UQM7); settings: read-out: percent of control
Description: as §1

OSR1 = OSR1 (Homo sapiens (Human), UniProt O95747); settings: read-out: percent of control
Description: as §1

ERK2 = ERK2 (Homo sapiens (Human), UniProt P28482); settings: read-out: percent of control
Sequence of ERK2 (P28482 whole entry): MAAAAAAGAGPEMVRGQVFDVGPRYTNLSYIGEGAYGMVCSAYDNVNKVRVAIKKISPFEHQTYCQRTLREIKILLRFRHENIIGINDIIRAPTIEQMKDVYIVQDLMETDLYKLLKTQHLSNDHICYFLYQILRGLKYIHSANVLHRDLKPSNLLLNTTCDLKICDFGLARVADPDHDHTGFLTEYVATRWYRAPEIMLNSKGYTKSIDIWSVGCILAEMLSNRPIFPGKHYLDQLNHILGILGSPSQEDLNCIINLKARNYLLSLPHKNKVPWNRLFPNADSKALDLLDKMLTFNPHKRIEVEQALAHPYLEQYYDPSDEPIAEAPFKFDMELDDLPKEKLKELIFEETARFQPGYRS
Description: as §1

PIM3 = PIM3 (Homo sapiens (Human), UniProt Q86V86); settings: read-out: percent of control
Description: as §1

EPHA1 = EPHA1 (Homo sapiens (Human), UniProt P21709); settings: read-out: percent of control
Description: as §1

CSNK1G2 = CSNK1G2 (Homo sapiens (Human), UniProt P78368); settings: read-out: percent of control
Description: as §1

TRKB = TRKB (Homo sapiens (Human), UniProt Q16620); settings: read-out: percent of control
Description: as §1

NEK3 = NEK3 (Homo sapiens (Human), UniProt P51956); settings: read-out: percent of control
Description: as §1

GSK3A = GSK3A (Homo sapiens (Human), UniProt P49840); settings: read-out: percent of control
Description: as §1

RET (V804M) = RET (V804M) (Homo sapiens (Human), UniProt P07949, V804M); settings: read-out: percent of control
Description: as §1

MST2 = MST2 (Homo sapiens (Human), UniProt Q13188); settings: read-out: percent of control
Description: as §1

[1] = molecular target: JAK3(JH1domain-catalytic) (Homo sapiens (Human), UniProt P52333); settings: for remaining binding at 1 µM: JAK3(JH1domain-catalytic), read-out: percent of control
Sequence of JAK3(JH1domain-catalytic) (P52333 822-1111): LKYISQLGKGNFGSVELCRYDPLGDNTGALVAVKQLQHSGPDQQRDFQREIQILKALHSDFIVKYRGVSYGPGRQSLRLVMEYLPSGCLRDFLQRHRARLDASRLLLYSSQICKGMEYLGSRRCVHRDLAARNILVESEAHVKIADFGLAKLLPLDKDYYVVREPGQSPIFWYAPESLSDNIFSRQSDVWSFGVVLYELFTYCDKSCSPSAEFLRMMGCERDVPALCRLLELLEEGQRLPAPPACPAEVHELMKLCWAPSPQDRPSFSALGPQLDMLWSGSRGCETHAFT
Description: as §1

CAMK2D = CAMK2D (Homo sapiens (Human), UniProt Q13557); settings: read-out: percent of control
Description: as §1

CDK4-cyclinD3 = CDK4-cyclinD3 (Homo sapiens (Human), UniProt P11802); settings: read-out: percent of control
Description: as §1

CDK9 = CDK9 (Homo sapiens (Human), UniProt P50750); settings: read-out: percent of control
Description: as §1

TRKA = TRKA (Homo sapiens (Human), UniProt P04629); settings: read-out: percent of control
Description: as §1

TGFBR2 = TGFBR2 (Homo sapiens (Human), UniProt P37173); settings: read-out: percent of control
Description: as §1

FGFR3 (G697C) = FGFR3 (G697C) (Homo sapiens (Human), UniProt P22607, G697C); settings: read-out: percent of control
Description: as §1

Row | SMILES | remaining binding at 1 µM (NEK1) [%] | percent of control (FLT3 (ITD,F691L)) [%] | remaining binding at 1 µM (NIM1) [%] | remaining binding at 1 µM (PAK4) [%] | remaining binding at 1 µM (HASPIN) [%] | remaining binding at 1 µM (PRKX) [%] | remaining binding at 1 µM (PKMYT1) [%] | remaining binding at 1 µM (ITK) [%] | remaining binding at 1 µM (MLCK) [%] | remaining binding at 1 µM (CLK3) [%] | remaining binding at 1 µM (KIT(V559D)) [%] | remaining binding at 1 µM (BMPR1A) [%] | remaining binding at 1 µM (SRPK2) [%] | remaining binding at 1 µM (PHKG1) [%] | remaining binding at 1 µM (ACVR1B) [%] | remaining binding at 1 µM (FGFR3) [%] | remaining binding at 1 µM (ERK3) [%] | remaining binding at 1 µM (TEC) [%] | remaining binding at 1 µM (BRAF(V600E)) [%] | remaining binding at 1 µM (INSR) [%] | other results
1 | CCN1CCN(Cc2cc(NC(=O)c3ccc(C)c(-c4ccc5nc(NC(=O)C6CC6)cn5c4)c3)cc(C(F)(F)F)c2)CC1 [Compound I-6, 3-(2-(cyclopropanecarboxamido)imidazo[1,2-a]pyridin-6-yl)-N-(3-((4-ethylpiperazin-1-yl)methyl)-5-(trifluoromethyl)phenyl)-4-methylbenzamide] | 97 | 34 | 88 | 96 | 64 | 100 | 100 | 5.8 | 85 | 84 | 0.05 | 92 | 100 | 93 | 94 | 89 | 100 | 100 | 5.9 | 3.2 | remaining binding at 1 µM (RIPK1): 0.75%; remaining binding at 1 µM (CAMK2A): 100%; remaining binding at 1 µM (OSR1): 100%; remaining binding at 1 µM (ERK2): 100%; remaining binding at 1 µM (PIM3): 89%; remaining binding at 1 µM (EPHA1): 38%; remaining binding at 1 µM (CSNK1G2): 100%; remaining binding at 1 µM (TRKB): 0%; remaining binding at 1 µM (NEK3): 96%; remaining binding at 1 µM (GSK3A): 68%; remaining binding at 1 µM (RET (V804M)): 0%; remaining binding at 1 µM (MST2): 97%; remaining binding at 1 µM [1]: 0%; remaining binding at 1 µM (CAMK2D): 92%; remaining binding at 1 µM (CDK4-cyclinD3): 64%; remaining binding at 1 µM (CDK9): 13%; remaining binding at 1 µM (TRKA): 0%; remaining binding at 1 µM (TGFBR2): 86%; remaining binding at 1 µM (FGFR3 (G697C)): 69%
2 | CCN1CCN(Cc2cc(NC(=O)c3ccc(C)c(-c4ccc5nc(NC(=O)C6CC6)cn5n4)c3)cc(C(F)(F)F)c2)CC1 [Compound I-2, 3-(2-(cyclopropanecarboxamido)imidazo[1,2-b]pyridazin-6-yl)-N-(3-((4-ethylpiperazin-1-yl)methyl)-5-(trifluoromethyl)phenyl)-4-methylbenzamide] | 95 | 12 | 99 | 96 | 87 | 100 | 100 | 1.4 | 93 | 79 | 0 | 99 | 73 | 99 | 99 | 86 | 89 | 100 | 1.7 | 0.85 | remaining binding at 1 µM (RIPK1): 0.45%; remaining binding at 1 µM (CAMK2A): 100%; remaining binding at 1 µM (OSR1): 99%; remaining binding at 1 µM (ERK2): 100%; remaining binding at 1 µM (PIM3): 90%; remaining binding at 1 µM (EPHA1): 44%; remaining binding at 1 µM (CSNK1G2): 92%; remaining binding at 1 µM (TRKB): 0.05%; remaining binding at 1 µM (NEK3): 100%; remaining binding at 1 µM (GSK3A): 43%; remaining binding at 1 µM (RET (V804M)): 0.05%; remaining binding at 1 µM (MST2): 50%; remaining binding at 1 µM [1]: 0%; selectivity for JAK3 over JAK2, JAK1, and TYK2 ([1]; KINOMEscan, 1 μM): more selective for JAK3 over JAK2, JAK1, and TYK2; remaining binding at 1 µM (CAMK2D): 100%; remaining binding at 1 µM (CDK4-cyclinD3): 41%; remaining binding at 1 µM (CDK9): 14%; remaining binding at 1 µM (TRKA): 0.75%; remaining binding at 1 µM (TGFBR2): 90%; remaining binding at 1 µM (FGFR3 (G697C)): 87%
